# Columns and labels:
# Rat cortical neurones [1] = assay: Neuritogenesis in cortical neurones; format: cell-based; settings: 24 h; for Neurones displaying neurites (%): control 39.35 ± 2.06
# Experimental: Rat cortical neurones were cultured by modification of a previously described method (Singer, et al., Neuroscience Letters, 1996, 212, pp. 13-16). Cells were cultured with sarsasapogenin, smilagenin, vehicle (DMSO 0.25%), GDNF, BDNF or NGF for 24 h. For each group, 15 pictures showing neurones displaying neurites were selected at random in each field, and for each neurone the longest neurite was measured. The neurite number was measured by counting the number of neurones displaying neurites, the number of neurones not displaying neurites and the number of total neurones in each field. Six fields per well were examined.
# The results are shown in Table 15 below, expressed as the number of neurones with neurites per field as a percentage of the total number of neurones per field.
# Rat cortical neurones [2] = assay: Neuronal survival and neurite outgrowth of cortical neurones cultured in the absence of serum; format: cell-based; settings: 30 nM, one day, no serum
# Experimental: Rat cortical neurones were cultured following the method described above.
# The test compounds were added for 24 h.
# Rat cortical neurones were exposed to sarsasapogenin, smilagenin (30 nM) or vehicle (DMSO, 0.25%) in the absence FBS or FCS for one day. Cortical neurones were stained using a monoclonal antibody anti β-tubulin diluted and an anti mouse Immunoglobulin G diluted. These antibodies stained neurone cell bodies (quantifying the neuroprotective effect) and neurites (quantifying the neurotrophic effect). An epifluorecence microscope (magnification ×20) with a camera took 2 pictures per well (10 pictures per condition). Analyses of the number of cells labelled with anti β-tubulin antibodies and of the total number of cells was performed using LUCIA 6.0 software.
# [3] = tested on: Rat spinal motor neurones; assay: Reversal of glutamate-induced damage in spinal motor neurones; format: cell-based
# Experimental: The rat spinal motor neurones were prepared as detailed above. On day 10, the medium was removed and the cultures exposed to glutamate (4 μM) for 10 min at 37° C. in 5% CO2/95% air atmosphere in defined medium. After the glutamate exposure, cultures were washed with DMEM at 37° C. then placed in fresh culture medium containing sarsasapogenin, smilagenin, vehicle or BDNF. After 48 h, the extent of motor neurone damage was determined as detailed above. This Example develops the work reported in Example 8 of PCT patent application No. WO-A-03/082893.
# C57b1/6 RJ mice = assay: Sciatic nerve crush model; format: in vivo, Mouse
# From the text: The sciatic nerve crush model is a well characterised reversible model for motor neurone disease and post-traumatic nerve injuries (McMahon and Priestley, Current Opinion in Neurobiology, 1995, 5, pp. 616-624). The nerve damage is produced by mechanical pressure using haemostatic forceps, applied twice, 5 mm proximal to the trifurcation of the right sciatic nerve of these mice. […] The loss of nerve function recovers progressively over a 4-5 week period after the mechanical insult.
# 4-Methylcatechol (10 μg/kg/day, i.p.) was used as a positive control (Kaechi et al., Journal of Phamacology and Experimental Therapeutics, 1995, 272, pp. 1300-1304).
# C57b1/6 RJ mice were anaesthetised with ketamine chlorhydrate (60 mg/kg, i.p.). The sciatic nerve was surgically exposed at mid thigh level and crushed at 5 mm proximal to the trifurcation of the sciatic nerve. The nerve was crushed twice for 30 s with a haemostatic forceps with a 90-degree rotation between each crush. […] The loss of nerve function recovered progressively over a 4-5 week period after mechanical insult. Electromyographic recordings were assessed as described above.
# [4] = tested on: Old Sprague Dawley (SD) rats; assay: Y-maze learning and memory in aged rats; format: in vivo, Rat; settings: 18 mg/kg/day oral
# Experimental: Old Sprague Dawley (SD) rats (20 month old) were orally administered sarsasapogenin or smilagenin (18 mg/kg/day) for 3 months. Young SD rats (4 month old) were used as healthy positive control and old SD rats (20 month old) were used as neurodegenerative control. A Y-maze was used to assess learning and memory, and was considered also a model of anxiety in light of the nature of the test that caused distress to the animal. On the floor of each arm of the Y-maze was an array of copper rods (2 mm×140 mm) to which an adjustable voltage electric current was applied when needed. Each arm was 450 mm long with a 15 W lamp at the end. Following 2 months of treatment each rat was trained for 7 consecutive days, once on each day. During each training session, a rat was put into one arm of the Y-maze and after 2 min an electrical current applied to the copper rods in the anti-clockwise arm and the lamp of the clockwise arm was illuminated, indicating the non-electrified area. If the rat went into the illuminated arm a correct response was recorded, otherwise a wrong response was recorded. This stimulation-response test was repeated 20 times each day, with a pause of 5 s between each test. The number of correct responses and the total time period for the 20 tests were recorded. A quotient of the number of correct responses divided by the total response time was calculated and used as an index for learning ability, with the higher the quotient the greater the learning ability. One month after the learning test (3 months of treatment) the Y-maze test was carried out again and the quotient obtained was used as an index for memory ability. At the end of the treatment the rats were killed and the brains removed for quantification of BDNF using an ELISA (data of BDNF presented in Example 3 above).
# [5] = Tissue distribution after a single oral administration, rat; format: in vivo; settings: 30 mg/kg single oral
structure (smiles),measurement,setting,value
"C[C@H]1CC[C@@]2(OC1)O[C@H]1C[C@H]3[C@@H]4CC[C@@H]5C[C@@H](O)CC[C@]5(C)[C@H]4CC[C@]3(C)[C@H]1[C@@H]2C [Sarsasapogenin, sarsasapogenin]",Neurite length (% of control),Rat cortical neurones [1]; 3 nM,168.29 ± 6.12 % of control
same,Neurones displaying neurites (%),Rat cortical neurones [1]; 3 nM,52.40 ± 2.63 %
same,Neurite length (% of control),Rat cortical neurones [1]; 30 nM,156.74 ± 4.06 % of control
same,Neurones displaying neurites (%),Rat cortical neurones [1]; 30 nM,57.32 ± 2.54 %
same,Neurite outgrowth (% of control),Rat cortical neurones [2],152.85 ± 10.68 % of control
same,Neuronal survival (% of control),Rat cortical neurones [2],149.55 ± 6.22 % of control
same,Neuronal survival (% of control),[3]; 0.03 nM for 48 h after glutamate 4 μM 10 min,101.09 ± 4.12 % of control
same,Neuronal survival (% of control),[3]; 3 nM for 48 h after glutamate 4 μM 10 min,108.10 ± 3.56 % of control
same,Neuronal survival (% of control),[3]; 300 nM for 48 h after glutamate 4 μM 10 min,120.43 ± 7.46 % of control
same,Degenerated fibres (% of control),"C57b1/6 RJ mice; 3 mg/kg/day oral, nerve crush alone 109.10 ± 2.65",33.50 ± 12.60 % of control
same,"Recovery of nerve function as measured by CMAP parameters (amplitude, latency, duration)","C57b1/6 RJ mice; sarsasapogenin 3, smilagenin 0.3 and 3 mg/kg/day, oral gavage in oil, 6 weeks",significantly improved the recovery of nerve function
same,Learning ability (correct response/total time),"[4]; 2 months, aged 2.39, young 5.97",5.02 ± 0.50 correct response/total time
same,Memory ability (correct response/total time),"[4]; 3 months, aged 2.16, young 5.27",4.66 ± 0.34 correct response/total time
same,Anxiety (Y-maze),[4]; up to 3 months,reduce the anxiety
same,"Concentration of compound, Brain","[5]; Rat F, 1 h",1210 ng equivalents/g tissue
same,"Concentration of compound, Plasma","[5]; Rat F, 1 h",1530 ng equivalents/g tissue
same,"Concentration of compound, Spinal cord","[5]; Rat F, 1 h",3020 ng equivalents/g tissue
same,"Concentration of compound, Brain","[5]; Rat F, 4 h",3860 ng equivalents/g tissue
same,"Concentration of compound, Plasma","[5]; Rat F, 4 h",2050 ng equivalents/g tissue
same,"Concentration of compound, Spinal cord","[5]; Rat F, 4 h",3830 ng equivalents/g tissue
same,"Concentration of compound, Brain","[5]; Rat F, 8 h",5980 ng equivalents/g tissue
same,"Concentration of compound, Plasma","[5]; Rat F, 8 h",1760 ng equivalents/g tissue
same,"Concentration of compound, Spinal cord","[5]; Rat F, 8 h",5080 ng equivalents/g tissue
same,"Concentration of compound, Brain","[5]; Rat F, 24 h",2800 ng equivalents/g tissue
same,"Concentration of compound, Plasma","[5]; Rat F, 24 h",629 ng equivalents/g tissue
same,"Concentration of compound, Spinal cord","[5]; Rat F, 24 h",3290 ng equivalents/g tissue
same,"Concentration of compound, Brain","[5]; Rat F, 168 h",134 ng equivalents/g tissue
same,"Concentration of compound, Plasma","[5]; Rat F, 168 h",90 ng equivalents/g tissue
same,"Concentration of compound, Spinal cord","[5]; Rat F, 168 h",590 ng equivalents/g tissue
same,"Concentration of compound, Brain","[5]; Rat M, 1 h",1140 ng equivalents/g tissue
same,"Concentration of compound, Plasma","[5]; Rat M, 1 h",1690 ng equivalents/g tissue
same,"Concentration of compound, Spinal cord","[5]; Rat M, 1 h",1090 ng equivalents/g tissue
same,"Concentration of compound, Brain","[5]; Rat M, 4 h",4970 ng equivalents/g tissue
same,"Concentration of compound, Plasma","[5]; Rat M, 4 h",2920 ng equivalents/g tissue
same,"Concentration of compound, Spinal cord","[5]; Rat M, 4 h",4350 ng equivalents/g tissue
same,"Concentration of compound, Brain","[5]; Rat M, 8 h",6920 ng equivalents/g tissue
same,"Concentration of compound, Plasma","[5]; Rat M, 8 h",2970 ng equivalents/g tissue
same,"Concentration of compound, Spinal cord","[5]; Rat M, 8 h",6060 ng equivalents/g tissue
same,"Concentration of compound, Brain","[5]; Rat M, 24 h",3800 ng equivalents/g tissue
same,"Concentration of compound, Plasma","[5]; Rat M, 24 h",967 ng equivalents/g tissue
same,"Concentration of compound, Spinal cord","[5]; Rat M, 24 h",4720 ng equivalents/g tissue
same,"Concentration of compound, Brain","[5]; Rat M, 168 h",194 ng equivalents/g tissue
same,"Concentration of compound, Plasma","[5]; Rat M, 168 h",149 ng equivalents/g tissue
same,"Concentration of compound, Spinal cord","[5]; Rat M, 168 h",747 ng equivalents/g tissue
